Biological target: human MGL from HeLa cells (Homo sapiens (Human), UniProt Q99685)
Assay: MGL in vitro activity assay ([glycerol-1,3-3H]-oleoyl glycerol hydrolysis, activated carbon filtration)
Assay type: biochemical
Conditions: 300 nM [Glycerol-1,3-3H]-oleoyl glycerol, one hour
Summary of the method: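 Endogenous human MGL in HeLa cells/homogenates incubated 1 h with test compounds and 300 nM [glycerol-1,3-3H]-oleoyl glycerol. Released 3H-glycerol passing an activated carbon filter counted as activity; screening at 10 μM compound, top IC50 concentration set empirically.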

Sequence of human MGL from HeLa cells (Q99685 whole entry): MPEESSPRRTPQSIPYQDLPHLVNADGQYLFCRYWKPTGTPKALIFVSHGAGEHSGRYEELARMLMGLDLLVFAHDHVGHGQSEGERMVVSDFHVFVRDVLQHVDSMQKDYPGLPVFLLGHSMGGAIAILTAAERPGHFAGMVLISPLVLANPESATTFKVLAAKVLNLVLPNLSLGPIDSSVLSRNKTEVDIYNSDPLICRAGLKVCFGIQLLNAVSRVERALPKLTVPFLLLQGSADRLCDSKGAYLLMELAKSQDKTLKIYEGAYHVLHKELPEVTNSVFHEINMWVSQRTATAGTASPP

First: C[C@]1(O)C[C@@H](C(=O)N2CC3(CCC(c4cccc(-n5cccn5)c4)CC3)C2)C1 [Example 347, (7-(3-(1H-Pyrazol-1-yl)phenyl)-2-azaspiro[3.5]nonan-2-yl)((1s,3s)-3-hydroxy-3-methylcyclobutyl)methanone]
Second: C[C@]1(O)C[C@@H](C(=O)N2CC3(CCC(c4ccn(-c5ccccc5)n4)CC3)C2)C1 [Example 380, ((1s,3s)-3-Hydroxy-3-methylcyclobutyl)(7-(1-phenyl-1H-pyrazol-3-yl)-2-azaspiro[3.5]nonan-2-yl)methanone]
The IC50 of the first is 2.4-fold higher: 56 nM for the first, 23 nM for the second. The second is the more potent here.

`Cc1cc(F)cc(C2CCC3(CC2)CN(C(=O)[C@H]2C[C@@](C)(O)C2)C3)c1` [Example 352, (7-(3-Fluoro-5-methylphenyl)-2-azaspiro[3.5]nonan-2-yl)((1s,3s)-3-hydroxy-3-methylcyclobutyl)methanone] and `CCOc1cc(F)cc(C2CCC3(CC2)CN(C(=O)[C@H]2C[C@@](C)(O)C2)C3)c1` [Example 365, (7-(3-Ethoxy-5-fluorophenyl)-2-azaspiro[3.5]nonan-2-yl)((1s,3s)-3-hydroxy-3-methylcyclobutyl)methanone] are the same in IC50: 22 nM for the first, 22 nM for the second.

`Cc1cc(C2CCC3(CC2)CN(C(=O)[C@H]2C[C@@](C)(O)C2)C3)ccc1F` [Example 353, (7-(4-Fluoro-3-methylphenyl)-2-azaspiro[3.5]nonan-2-yl)((1s,3s)-3-hydroxy-3-methylcyclobutyl)methanone] and `Cc1ccc(F)c(C2CCC3(CC2)CN(C(=O)[C@H]2C[C@@](C)(O)C2)C3)c1` [Example 354, (7-(2-Fluoro-5-methylphenyl)-2-azaspiro[3.5]nonan-2-yl)((1s,3s)-3-hydroxy-3-methylcyclobutyl)methanone] are within 1.5-fold of each other in IC50: 18 nM for the first, 20 nM for the second.

Going from `Cc1cccc(C2CCC3(CC2)CN(C(=O)[C@H]2C[C@@](C)(O)C2)C3)c1F` [Example 355, (7-(2-Fluoro-3-methylphenyl)-2-azaspiro[3.5]nonan-2-yl)((1s,3s)-3-hydroxy-3-methylcyclobutyl)methanone] to `Cc1c(F)cccc1C1CCC2(CC1)CN(C(=O)[C@H]1C[C@@](C)(O)C1)C2` [Example 359, (7-(3-Fluoro-2-methylphenyl)-2-azaspiro[3.5]nonan-2-yl)((1s,3s)-3-hydroxy-3-methylcyclobutyl)methanone], the IC50 falls from 39 nM to 18 nM (2.2-fold).

Going from `Cc1cccc(F)c1C1CCC2(CC1)CN(C(=O)[C@H]1C[C@@](C)(O)C1)C2` [Example 356, (7-(2-Fluoro-6-methylphenyl)-2-azaspiro[3.5]nonan-2-yl)((1s,3s)-3-hydroxy-3-methylcyclobutyl)methanone] to `Cc1cc(F)ccc1C1CCC2(CC1)CN(C(=O)[C@H]1C[C@@](C)(O)C1)C2` [Example 357, (7-(4-Fluoro-2-methylphenyl)-2-azaspiro[3.5]nonan-2-yl)((1s,3s)-3-hydroxy-3-methylcyclobutyl)methanone], the IC50 rises from 15 nM to 29 nM (1.9-fold).

Going from `Cc1ccc(F)cc1C1CCC2(CC1)CN(C(=O)[C@H]1C[C@@](C)(O)C1)C2` [Example 358, (7-(5-Fluoro-2-methylphenyl)-2-azaspiro[3.5]nonan-2-yl)((1s,3s)-3-hydroxy-3-methylcyclobutyl)methanone] to `COc1ccc(C)c(C2CCC3(CC2)CN(C(=O)[C@H]2C[C@@](C)(O)C2)C3)c1` [Example 363, ((1s,3s)-3-Hydroxy-3-methylcyclobutyl)(7-(5-methoxy-2-methylphenyl)-2-azaspiro[3.5]nonan-2-yl)methanone], the IC50 rises from 29 nM to 164 nM (5.7-fold).

Compared with `CCOc1cc(C2CCC3(CC2)CN(C(=O)[C@H]2C[C@@](C)(O)C2)C3)ccc1C` [Example 360, (7-(3-Ethoxy-4-methylphenyl)-2-azaspiro[3.5]nonan-2-yl)((1s,3s)-3-hydroxy-3-methylcyclobutyl)methanone], `CCOc1cccc(C2CCC3(CC2)CN(C(=O)[C@H]2C[C@@](C)(O)C2)C3)c1C` [Example 361, (7-(3-Ethoxy-2-methylphenyl)-2-azaspiro[3.5]nonan-2-yl)((1s,3s)-3-hydroxy-3-methylcyclobutyl)methanone] is 20-fold lower in IC50: 36 nM for the first, 1.8 nM for the second.

Going from `Cc1c(OC(C)C)cccc1C1CCC2(CC1)CN(C(=O)[C@H]1C[C@@](C)(O)C1)C2` [Example 362, ((1s,3s)-3-Hydroxy-3-methylcyclobutyl)(7-(3-isopropoxy-2-methylphenyl)-2-azaspiro[3.5]nonan-2-yl)methanone] to `Cc1c(C2CCC3(CC2)CN(C(=O)[C@H]2C[C@@](C)(O)C2)C3)ccnc1OC(C)C` [Example 376, ((1s,3s)-3-Hydroxy-3-methylcyclobutyl)(7-(2-isopropoxy-3-methylpyridin-4-yl)-2-azaspiro[3.5]nonan-2-yl)methanone], the IC50 rises from 1.5 nM to 17 nM (11-fold).

Going from `Cc1c(OC2CC2)cccc1C1CCC2(CC1)CN(C(=O)[C@H]1C[C@@](C)(O)C1)C2` [Example 364, (7-(3-Cyclopropoxy-2-methylphenyl)-2-azaspiro[3.5]nonan-2-yl)((1s,3s)-3-hydroxy-3-methylcyclobutyl)methanone] to `COc1cccc(C2CCC3(CC2)CN(C(=O)[C@H]2C[C@@](C)(O)C2)C3)c1F` [Example 366, (7-(2-Fluoro-3-methoxyphenyl)-2-azaspiro[3.5]nonan-2-yl)((1s,3s)-3-hydroxy-3-methylcyclobutyl)methanone], the IC50 rises from 2.9 nM to 50 nM (17-fold).

`COc1cccc(C2CCC3(CC2)CN(C(=O)[C@H]2C[C@@](C)(O)C2)C3)c1Cl` [Example 367, (7-(2-Chloro-3-methoxyphenyl)-2-azaspiro[3.5]nonan-2-yl)((1s,3s)-3-hydroxy-3-methylcyclobutyl)methanone] and `COc1cc(F)cc(C2CCC3(CC2)CN(C(=O)[C@H]2C[C@@](C)(O)C2)C3)c1F` [Example 369, (7-(2,5-Difluoro-3-methoxyphenyl)-2-azaspiro[3.5]nonan-2-yl)((1s,3s)-3-hydroxy-3-methylcyclobutyl)methanone] are within 1.5-fold of each other in IC50: 40 nM for the first, 35 nM for the second.

Compared with `COc1cc(F)c(F)c(C2CCC3(CC2)CN(C(=O)[C@H]2C[C@@](C)(O)C2)C3)c1` [Example 368, (7-(2,3-Difluoro-5-methoxyphenyl)-2-azaspiro[3.5]nonan-2-yl)((1s,3s)-3-hydroxy-3-methylcyclobutyl)methanone], `COc1cc(C2CCC3(CC2)CN(C(=O)[C@H]2C[C@@](C)(O)C2)C3)cc(F)c1C` [Example 370, (7-(3-Fluoro-5-methoxy-4-methylphenyl)-2-azaspiro[3.5]nonan-2-yl)((1s,3s)-3-hydroxy-3-methylcyclobutyl)methanone] is 5.4-fold lower in IC50: 59 nM for the first, 11 nM for the second. The second is the more potent here.

`C[C@]1(O)C[C@@H](C(=O)N2CC3(CCC(c4cccc(C5(C(F)(F)F)CC5)n4)CC3)C2)C1` [Example 371, ((1s,3s)-3-Hydroxy-3-methylcyclobutyl)(7-(6-(1-(trifluoromethyl)cyclopropyl)pyridin-2-yl)-2-azaspiro[3.5]nonan-2-yl)methanone] and `CC1(c2cccc(C3CCC4(CC3)CN(C(=O)[C@H]3C[C@@](C)(O)C3)C4)n2)CC1` [Example 372, ((1s,3s)-3-Hydroxy-3-methylcyclobutyl)(7-(6-(1-methylcyclopropyl)pyridin-2-yl)-2-azaspiro[3.5]nonan-2-yl)methanone] are within 1.5-fold of each other in IC50: 6.4 nM for the first, 5.1 nM for the second.

First: Cc1ccc(C2CCC3(CC2)CN(C(=O)[C@H]2C[C@@](C)(O)C2)C3)nc1C(C)C [Example 373, ((1s,3s)-3-Hydroxy-3-methylcyclobutyl)(7-(6-isopropyl-5-methylpyridin-2-yl)-2-azaspiro[3.5]nonan-2-yl)methanone]
Second: Cc1cc(OC(C)C)nc(C2CCC3(CC2)CN(C(=O)[C@H]2C[C@@](C)(O)C2)C3)c1 [Example 374, ((1s,3s)-3-Hydroxy-3-methylcyclobutyl)(7-(6-isopropoxy-4-methylpyridin-2-yl)-2-azaspiro[3.5]nonan-2-yl)methanone]
The IC50 of the first is 3.9-fold lower: 2.4 nM for the first, 9.3 nM for the second.

First: COc1cc(C)nc(C2CCC3(CC2)CN(C(=O)[C@H]2C[C@@](C)(O)C2)C3)c1 [Example 375, ((1s,3s)-3-Hydroxy-3-methylcyclobutyl)(7-(4-methoxy-6-methylpyridin-2-yl)-2-azaspiro[3.5]nonan-2-yl)methanone]
Second: CC(C)(C)c1cncc(C2CCC3(CC2)CN(C(=O)[C@H]2C[C@@](C)(O)C2)C3)n1 [Example 377, (7-(6-(tert-Butyl)pyrazin-2-yl)-2-azaspiro[3.5]nonan-2-yl)((1s,3s)-3-hydroxy-3-methylcyclobutyl)methanone]
The IC50 of the first is 2.8-fold higher: 231 nM for the first, 82 nM for the second. The second is the more potent here.

Compared with `CC(C)(C)c1ccnc(C2CCC3(CC2)CN(C(=O)[C@H]2C[C@@](C)(O)C2)C3)n1` [Example 378, (7-(4-(tert-Butyl)pyrimidin-2-yl)-2-azaspiro[3.5]nonan-2-yl)((1s,3s)-3-hydroxy-3-methylcyclobutyl)methanone], `CC(C)(C)c1cc(C2CCC3(CC2)CN(C(=O)[C@H]2C[C@@](C)(O)C2)C3)on1` [Example 382, (7-(3-(tert-Butyl)isoxazol-5-yl)-2-azaspiro[3.5]nonan-2-yl)((1s,3s)-3-hydroxy-3-methylcyclobutyl)methanone] is 4.8-fold higher in IC50: 37 nM for the first, 178 nM for the second. The first is the more potent here.

Compared with `CC(C)(C)n1ccc(C2CCC3(CC2)CN(C(=O)[C@H]2C[C@@](C)(O)C2)C3)n1` [Example 379, (7-(1-(tert-Butyl)-1H-pyrazol-3-yl)-2-azaspiro[3.5]nonan-2-yl)((1s,3s)-3-hydroxy-3-methylcyclobutyl)methanone], `CC(C)(C)n1cnc(C2CCC3(CC2)CN(C(=O)[C@H]2C[C@@](C)(O)C2)C3)c1` [Example 381, (7-(1-(tert-Butyl)-1H-imidazol-4-yl)-2-azaspiro[3.5]nonan-2-yl)((1s,3s)-3-hydroxy-3-methylcyclobutyl)methanone] is 25-fold higher in IC50: 56 nM for the first, 1390 nM for the second.

Compared with `Cn1cc(C2CCC3(CC2)CN(C(=O)[C@H]2C[C@@](C)(O)C2)C3)c2cccnc21` [Example 383, ((1s,3s)-3-Hydroxy-3-methylcyclobutyl)(7-(1-methyl-1H-pyrrolo[2,3-b]pyridin-3-yl)-2-azaspiro[3.5]nonan-2-yl)methanone], `Cn1ccc2ccc(C3CCC4(CC3)CN(C(=O)[C@H]3C[C@@](C)(O)C3)C4)nc21` [Example 384, ((1s,3s)-3-Hydroxy-3-methylcyclobutyl)(7-(1-methyl-1H-pyrrolo[2,3-b]pyridin-6-yl)-2-azaspiro[3.5]nonan-2-yl)methanone] is 1.9-fold lower in IC50: 180 nM for the first, 97 nM for the second.

Reference: US11802111B2, “Cyclobutyl amide monoacylglycerol lipase modulators” (Janssen Pharmaceutica NV, priority 2020, dated 2023)
